Results on 20 molecules are retold here after patent US10689354B2, “Aminoazole derivative” (Teijin Pharma Limited, priority 2015, dated 2020).

Assay [1] addresses T1, androgen receptor (AR-LBD) (Rattus norvegicus, UniProt P15207).
T1 construct: 5 μL of 2×AR-LBD/Fluoromone AL Red Complex contained in the kit; purchased Invitrogen
T1 sequence (P15207 651-882 limits assumed): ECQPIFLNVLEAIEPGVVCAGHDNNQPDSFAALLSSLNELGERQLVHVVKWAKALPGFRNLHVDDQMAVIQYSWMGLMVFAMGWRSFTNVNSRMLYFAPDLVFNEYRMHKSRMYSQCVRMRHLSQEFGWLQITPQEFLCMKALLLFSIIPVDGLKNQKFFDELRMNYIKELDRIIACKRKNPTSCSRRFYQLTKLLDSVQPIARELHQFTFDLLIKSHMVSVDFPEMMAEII
The experiment in a line: Evaluation of androgen receptor affinity (PolarScreen Androgen Receptor Competitor Assay Kit, Red; fluorescence polarization). To be noted: 22° C. for 5 hours, relative to binding rate of 1 μM DHT, read-out: AR affinity (pEC50) (converted). The procedure, abridged:
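FP competition: compound + AR-LBD/Fluoromone AL Red tracer complex, 22° C, 5 h. Reference 1 μM DHT binding rate; pEC50 by 4-parameter fit.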
For orientation: In fluorescence polarisation assays a small probe gives low polarisation when free and higher when bound to something large.

The next assay deals with T2, human androgen receptor (Homo sapiens, UniProt P10275).
T2 construct: expressed in transfected cells; host or cells: HEK293
T2 sequence (P10275 1-920): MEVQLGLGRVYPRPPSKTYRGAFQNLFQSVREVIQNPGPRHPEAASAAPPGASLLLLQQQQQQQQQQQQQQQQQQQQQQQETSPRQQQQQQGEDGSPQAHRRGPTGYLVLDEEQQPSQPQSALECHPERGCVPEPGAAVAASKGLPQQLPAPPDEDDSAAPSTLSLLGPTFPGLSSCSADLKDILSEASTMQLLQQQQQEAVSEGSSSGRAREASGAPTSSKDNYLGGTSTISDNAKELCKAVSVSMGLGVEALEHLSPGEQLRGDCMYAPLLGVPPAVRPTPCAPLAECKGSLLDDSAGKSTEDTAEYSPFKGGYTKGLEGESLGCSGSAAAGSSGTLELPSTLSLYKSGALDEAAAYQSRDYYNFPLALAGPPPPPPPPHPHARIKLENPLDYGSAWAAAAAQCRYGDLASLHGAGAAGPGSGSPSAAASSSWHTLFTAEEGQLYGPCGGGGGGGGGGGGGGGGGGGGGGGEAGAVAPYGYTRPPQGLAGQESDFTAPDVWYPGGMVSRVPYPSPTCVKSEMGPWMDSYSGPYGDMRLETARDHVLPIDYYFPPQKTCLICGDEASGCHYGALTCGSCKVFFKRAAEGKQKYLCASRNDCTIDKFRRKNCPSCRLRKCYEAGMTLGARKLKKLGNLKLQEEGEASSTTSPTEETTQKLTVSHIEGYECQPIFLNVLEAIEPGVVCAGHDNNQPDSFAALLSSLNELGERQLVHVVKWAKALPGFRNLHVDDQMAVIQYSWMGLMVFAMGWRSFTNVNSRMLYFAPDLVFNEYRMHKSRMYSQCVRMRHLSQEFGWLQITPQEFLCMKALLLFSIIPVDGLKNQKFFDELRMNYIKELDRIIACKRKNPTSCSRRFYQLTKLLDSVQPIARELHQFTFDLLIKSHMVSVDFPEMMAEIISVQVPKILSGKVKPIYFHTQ
The experiment in a line: Reporter assay of an androgen receptor responsive sequence (luciferase, transiently transfected HEK293 cells). Format: cell-based. To be noted: 24 hours incubation, relative to activity of 100 nM DHT, read-out: AR transcriptive activity (pEC50) (converted). A digest of the protocol: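 Agonism scored as pEC50, fitted by 4-parameter curve against the response to 100 nM DHT, from dual-luciferase readout after 24 h compound treatment. Cells were HEK293 co-transfected (3 h) with human AR expression vector, androgen-responsive firefly reporter and Renilla control, in charcoal-stripped serum.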
(In general: A reporter such as luciferase makes a cellular process visible.)

SMILES strings stand for the structures.

As to `Cc1sc(N(CCC2CCCCC2)Cc2ccc(Cl)cc2)nc1C(=O)NS(=O)(=O)Cc1cccc(F)c1` [Compound 731, 2-[(4-chlorophenyl)methyl-(2-cyclohexylethyl)amino]-N-[(3-fluorophenyl)methylsulfonyl]-5-methyl-thiazole-4-carboxamide], the EC50 in assay [1] is 501 nM; on human androgen receptor it was more than 10000 nM.

For `Cc1sc(N(CCC2CCCCC2)Cc2ccc(OC(F)(F)F)cc2)nc1C(=O)NS(C)(=O)=O` [Compound 732, 2-[2-cyclohexylethyl-[[4-(trifluoromethoxy)phenyl]methyl]amino]-5-methyl-N-methylsulfonyl-thiazole-4-carboxamide], the values for the EC50 (in assay [1]; on human androgen receptor) were 100 nM and more than 10000 nM, respectively.

As to `CCS(=O)(=O)NC(=O)c1nc(N(CCC2CCCCC2)Cc2ccc(OC(F)(F)F)cc2)sc1C` [Compound 733, 2-[2-cyclohexylethyl-[[4-(trifluoromethoxy)phenyl]methyl]amino]-N-ethylsulfonyl-5-methyl-thiazole-4-carboxamide], the figures for the EC50 (in assay [1]; at human androgen receptor) were 200 nM and more than 10000 nM, respectively.

Regarding `Cc1sc(N(CCC2CCCCC2)Cc2ccc(OC(F)(F)F)cc2)nc1C(=O)NS(=O)(=O)C1CC1` [Compound 734, 2-[2-cyclohexylethyl-[[4-(trifluoromethoxy)phenyl]methyl]amino]-N-cyclopropylsulfonyl-5-methyl-thiazole-4-carboxamide], the EC50 in assay [1] was 1000 nM; on human androgen receptor, more than 10000 nM.

Regarding `Cc1sc(N(CCC2CCCCC2)Cc2ccc(OC(F)(F)F)cc2)nc1C(=O)NS(=O)(=O)Cc1cccc(F)c1` [Compound 735, 2-[2-cyclohexylethyl-[[4-(trifluoromethoxy)phenyl]methyl]amino]-N-[(3-fluorophenyl)methylsulfonyl]-5-methyl-thiazole-4-carboxamide], the results for the EC50 (in assay [1]; at human androgen receptor) were 1000 nM and more than 10000 nM, respectively.

In the case of `Cc1sc(N(CCn2cc(C#N)cn2)Cc2ccc(Cl)cc2)nc1C(=O)NS(C)(=O)=O` [Compound 736, 2-[(4-chlorophenyl)methyl-[2-(4-cyanopyrazol-1-yl)ethyl]amino]-5-methyl-N-methylsulfonyl-thiazole-4-carboxamide], the EC50 was 200 nM in assay [1] and 501 nM at human androgen receptor.

Regarding `CNC(=O)c1ccc(CCN(Cc2ccccc2)c2nc(C(=O)NS(C)(=O)=O)c(C)s2)cc1` [Compound 738, 2-[benzyl-[2-[4-(methylcarbamoyl)phenyl]ethyl]amino]-5-methyl-N-methylsulfonyl-thiazole-4-carboxamide], the results for the EC50 (in assay [1]; on human androgen receptor) were 501 nM and 6310 nM, respectively.

Consider `COCCCS(=O)(=O)NC(=O)c1nc(N(CCc2ccc(C#N)cc2)Cc2ccc(Cl)cc2)sc1C` [Compound 739, 2-[(4-chlorophenyl)methyl-[2-(4-cyanophenyl)ethyl]amino]-N-(3-methoxypropylsulfonyl)-5-methyl-thiazole-4-carboxamide], for which the values for the EC50 (in assay [1]; at human androgen receptor) were 31.6 nM and 251 nM, respectively.

Regarding `COCCCS(=O)(=O)NC(=O)c1nc(N(CCc2ccc(C#N)cc2)Cc2ccc(OC(F)(F)F)cc2)sc1C` [Compound 740, 2-[2-(4-cyanophenyl)ethyl-[[4-(trifluoromethoxy)phenyl]methyl]amino]-N-(3-methoxypropylsulfonyl)-5-methyl-thiazole-4-carboxamide], the EC50 in assay [1] was 25.1 nM; at human androgen receptor, 1000 nM.

`Cc1sc(N(CCc2ccc(C#N)cc2)Cc2ccc(Cl)cc2)nc1C(=O)NS(=O)(=O)Cc1ccncc1` [Compound 741, 2-[(4-chlorophenyl)methyl-[2-(4-cyanophenyl)ethyl]amino]-5-methyl-N-(4-pyridylmethylsulfonyl)thiazole-4-carboxamide]: the EC50 in assay [1] is 25.1 nM; on human androgen receptor it was 158 nM.

With `Cc1sc(N(CCc2ccc(C#N)cc2)Cc2ccc(OC(F)(F)F)cc2)nc1C(=O)NS(=O)(=O)Cc1ccncc1` [Compound 742, 2-[2-(4-cyanophenyl)ethyl-[[4-(trifluoromethoxy)phenyl]methyl]amino]-5-methyl-N-(4-pyridylmethylsulfonyl)thiazole-4-carboxamide], the EC50 was 25.1 nM in assay [1] and 2000 nM at human androgen receptor.

With `Cc1sc(N(Cc2ccccc2)c2ccc3nccnc3c2)nc1C(=O)NS(C)(=O)=O` [Compound 744, 2-[benzyl(quinoxalin-6-yl)amino]-5-methyl-N-methylsulfonyl-thiazole-4-carboxamide], the EC50 in assay [1] was 316 nM; at human androgen receptor, 1260 nM.

Regarding `COCCCS(=O)(=O)NC(=O)c1nc(N(Cc2ccc(OC(F)F)cc2)c2ccc(C#N)cc2)sc1C` [Example 165, 2-[4-cyano-N-[[4-(difluoromethoxy)phenyl]methyl]anilino]-N-(3-methoxypropylsulfonyl)-5-methyl-thiazole-4-carboxamide], the EC50 in assay [1] is 50.1 nM; on human androgen receptor, 158 nM.

For the molecule `COCCCS(=O)(=O)NC(=O)c1nc(N(Cc2ccc(Cl)cc2)c2ccc(C#N)cc2)sc1C` [Example 166, 2-[N-[(4-chlorophenyl)methyl]-4-cyano-anilino]-N-(3-methoxypropylsulfonyl)-5-methyl-thiazole-4-carboxamide], the values for the EC50 (in assay [1]; at human androgen receptor) were 25.1 nM and 79.4 nM, respectively.

As for `Cc1sc(N(Cc2ccc(C(F)(F)F)c(F)c2)c2ccc(C#N)cc2)nc1C(=O)NS(C)(=O)=O` [Example 167, 2-[4-cyano-N-[[3-fluoro-4-(trifluoromethyl)phenyl]methyl]anilino]-5-methyl-N-methylsulfonyl-thiazole-4-carboxamide], the EC50 was 25.1 nM in assay [1] and 31.6 nM at human androgen receptor.

With `Cc1sc(N(Cc2ncc(Cl)cc2F)c2ccc(C#N)cc2)nc1C(=O)NS(C)(=O)=O` [Example 168, 2-[N-[(5-chloro-3-fluoro-2-pyridyl)methyl]-4-cyano-anilino]-5-methyl-N-methylsulfonyl-thiazole-4-carboxamide], the EC50 in assay [1] was 100 nM; at human androgen receptor, 200 nM.

In the case of `COCCCS(=O)(=O)NC(=O)c1nc(N(Cc2ncc(Cl)cc2F)c2ccc(C#N)cc2)sc1C` [Example 169, 2-[N-[(5-chloro-3-fluoro-2-pyridyl)methyl]-4-cyano-anilino]-N-(3-methoxypropylsulfonyl)-5-methyl-thiazole-4-carboxamide], the EC50 is 200 nM in assay [1] and 501 nM on human androgen receptor.

As to `Cc1sc(N(Cc2ncc(C(F)(F)F)cc2F)c2ccc(C#N)cc2)nc1C(=O)NS(C)(=O)=O` [Example 170, 2-[4-cyano-N-[[3-fluoro-5-(trifluoromethyl)-2-pyridyl]methyl]anilino]-5-methyl-N-methylsulfonyl-thiazole-4-carboxamide], the EC50 in assay [1] was 63.1 nM; on human androgen receptor, 200 nM.

Regarding `COCCCS(=O)(=O)NC(=O)c1nc(N(Cc2ncc(C(F)(F)F)cc2F)c2ccc(C#N)cc2)sc1C` [Example 171, 2-[4-cyano-N-[[3-fluoro-5-(trifluoromethyl)-2-pyridyl]methyl]anilino]-N-(3-methoxypropylsulfonyl)-5-methyl-thiazole-4-carboxamide], the EC50 in assay [1] was 126 nM; on human androgen receptor it was 631 nM.

`Cc1sc(N(Cc2ccc(OC(F)F)c(F)c2)c2ccc(C#N)cc2)nc1C(=O)NS(C)(=O)=O` [Example 172, 2-[4-cyano-N-[[4-(difluoromethoxy)-3-fluoro-phenyl]methyl]anilino]-5-methyl-N-methylsulfonyl-thiazole-4-carboxamide]: the EC50 (in assay [1]; at human androgen receptor) was 31.6 nM throughout.
